Assay results: US20220257592A1, “METHODS OF TREATING CANCER” (HOFFMANN-LA ROCHE INC., priority 2019, published 2022)

Assay: Clinical trial safety, integrated analysis of ALKA, STARTRK-1, STARTRK-2, STARTRK-NG (N=504)
Excerpt: The following categories of frequency have been used: very common ≥1/10, common (≥1/100 to <1/10), uncommon (≥1/1,000 to <1/100), rare (≥1/10,000 to <1/1000), very rare (<1/10,000).

## CN1CCN(c2ccc(C(=O)Nc3n[nH]c4ccc(Cc5cc(F)cc(F)c5)cc34)c(NC3CCOCC3)c2)CC1 [Entrectinib, N-[5-(3,5-difluorobenzyl)-1H-indazol-3-yl]-4-(4-methyl-piperazin-1-yl)-2-(tetrahydro-pyran-4-ylamino)-benzamide]
N = 382
  Laboratory: Hyperuricemia, Change from Baseline All Grades: 50.8%
  Laboratory: Hyperuricemia, Change from Baseline to Grade 3 or 4: 6.8%
N = 457
  Laboratory: Decreased Neutrophils, Change from Baseline All Grades: 27.8%
  Laboratory: Decreased Neutrophils, Change from Baseline to Grade 3 or 4: 6.3%
N = 478
  Laboratory: Increased AST, Change from Baseline All Grades: 43.3%
  Laboratory: Increased AST, Change from Baseline to Grade 3 or 4: 3.3%
N = 479
  Laboratory: Increased ALT, Change from Baseline All Grades: 38.4%
  Laboratory: Increased ALT, Change from Baseline to Grade 3 or 4: 3.1%
N = 480
  Laboratory: Increased Blood Creatinine, Change from Baseline All Grades: 94.8%
  Laboratory: Increased Blood Creatinine, Change from Baseline to Grade 3 or 4: 3.1%
N = 487
  Laboratory: Decreased Hemoglobin, Change from Baseline All Grades: 65.7%
  Laboratory: Decreased Hemoglobin, Change from Baseline to Grade 3 or 4: 9.2%
N = 504
  ALT increased, All Grades: 16.1%
  ALT increased, Frequency Category (All Grades): very common (very common ≥1/10)
  ALT increased, Grade ≥3: 3.4%
  AST increased, All Grades: 17.5%
  AST increased, Frequency Category (All Grades): very common (very common ≥1/10)
  AST increased, Grade ≥3: 3.6%
  Abdominal pain, All Grades: 11.1%
  Abdominal pain, Frequency Category (All Grades): very common (very common ≥1/10)
  Abdominal pain, Grade ≥3: 0.6%
  Anemia, All Grades: 28.2%
  Anemia, Frequency Category (All Grades): very common (very common ≥1/10)
  Anemia, Grade ≥3: 9.7%
  Arthralgia, All Grades: 19.0%
  Arthralgia, Frequency Category (All Grades): very common (very common ≥1/10)
  Arthralgia, Grade ≥3: 0.6%
  Ataxia, Frequency Category (All Grades): very common (very common ≥1/10)
  Ataxia, Grade ≥3: 0.8%
  Blood creatinine increased, All Grades: 25.4%
  Blood creatinine increased, Frequency Category (All Grades): very common (very common ≥1/10)
  Blood creatinine increased, Grade ≥3: 0.6%
  Cognitive Disorders, All Grades: 24.2%
  Cognitive Disorders, Frequency Category (All Grades): very common (very common ≥1/10)
  Cognitive Disorders, Grade ≥3: 4.4%
  Congestive Heart Failure, All Grades: 3.0%
  Congestive Heart Failure, Frequency Category (All Grades): common (common (≥1/100 to <1/10))
  Congestive Heart Failure, Grade ≥3: 2.2%
  Constipation, All Grades: 42.9%
  Constipation, Frequency Category (All Grades): very common (very common ≥1/10)
  Constipation, Grade ≥3: 0.4%
  Cough, All Grades: 21.4%
  Cough, Frequency Category (All Grades): very common (very common ≥1/10)
  Cough, Grade ≥3: 0.6%
  Decreased appetite, All Grades: 11.9%
  Decreased appetite, Frequency Category (All Grades): very common (very common ≥1/10)
  Decreased appetite, Grade ≥3: 0.2%
  Dehydration, All Grades: 7.9%
  Dehydration, Frequency Category (All Grades): common (common (≥1/100 to <1/10))
  Dehydration, Grade ≥3: 1.0%
  Diarrhea, All Grades: 33.5%
  Diarrhea, Frequency Category (All Grades): very common (very common ≥1/10)
  Diarrhea, Grade ≥3: 2.6%
  Dizziness, All Grades: 39.7%
  Dizziness, Frequency Category (All Grades): very common (very common ≥1/10)
  Dizziness, Grade ≥3: 1.2%
  Dysasthesia, All Grades: 29.0%
  Dysasthesia, Frequency Category (All Grades): very common (very common ≥1/10)
  Dysasthesia, Grade ≥3: 0.2%
  Dysgeusia, All Grades: 42.3%
  Dysgeusia, Frequency Category (All Grades): very common (very common ≥1/10)
  Dysgeusia, Grade ≥3: 0.4%
  Dysphagia, All Grades: 10.1%
  Dysphagia, Frequency Category (All Grades): very common (very common ≥1/10)
  Dysphagia, Grade ≥3: 0.4%
  Dyspnea, All Grades: 27.0%
  Dyspnea, Frequency Category (All Grades): very common (very common ≥1/10)
  Edema, All Grades: 37.3%
  Edema, Frequency Category (All Grades): very common (very common ≥1/10)
  Edema, Grade ≥3: 1.4%
  Electrocardiogram QT prolonged, All Grades: 2.0%
  Electrocardiogram QT prolonged, Grade ≥3: 0.6%
  Fatigue, All Grades: 45.0%
  Fatigue, Frequency Category (All Grades): very common (very common ≥1/10)
  Fatigue, Grade ≥3: 5.0%
  Fractures, All Grades: 6.2%
  Fractures, Frequency Category (All Grades): common (common (≥1/100 to <1/10))
  Fractures, Grade ≥3: 2.4%
  Headache, All Grades: 17.5%
  Headache, Frequency Category (All Grades): very common (very common ≥1/10)
  Headache, Grade ≥3: 1.0%
  Hyperuricemia, All Grades: 9.1%
  Hyperuricemia, Frequency Category (All Grades): common (common (≥1/100 to <1/10))
  Hyperuricemia, Grade ≥3: 1.8%
  Hypotension, All Grades: 16.5%
  Hypotension, Frequency Category (All Grades): very common (very common ≥1/10)
  Hypotension, Grade ≥3: 2.4%
  Lung infection, All Grades: 13.1%
  Lung infection, Frequency Category (All Grades): very common (very common ≥1/10)
  Mood disorders, All Grades: 9.1%
  Mood disorders, Frequency Category (All Grades): common (common (≥1/100 to <1/10))
  Mood disorders, Grade ≥3: 0.6%
  Muscular weakness, All Grades: 12.3%
  Muscular weakness, Frequency Category (All Grades): very common (very common ≥1/10)
  Muscular weakness, Grade ≥3: 1.2%
  Myalgia, All Grades: 19.6%
